The values that follow come from PMC6120666 (The EMBO Journal, 2018).

Holding throughout (test): Drug affinity chromatography with c-ponatinib and LC-MS/MS (ponatinib interactome)
Holding throughout (format): binding

Test [1] concerns the target T1, proteins of U2OS cell lysate (Homo sapiens, UniProt P49773).
T1 construct: Proteins enriched by c-ponatinib from U2OS cell lysate; endogenous in cells; host or cells: U2OS cell lysate
Conditions: HINT1, Histidine triad nucleotide-binding protein 1. A digest of the protocol: (§1)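 Proteins were identified by nano-UPLC–MS/MS after elution with formic acid and trypsin digestion. They were captured from U2OS lysate (2 mg protein per pulldown, NP-40 buffer) on amine-coupled NHS beads during a 2 h incubation at 4 °C.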

Test [2] has as its target T2, proteins of U2OS cell lysate (Homo sapiens, UniProt P78527).
T2 construct: Proteins enriched by c-ponatinib from U2OS cell lysate; endogenous in cells; host or cells: U2OS cell lysate
The conditions noted are these: PRKDC, DNA-dependent protein kinase catalytic subunit. In a few lines: as §1

The target of test [3] is T3, proteins of U2OS cell lysate (Homo sapiens, UniProt O14980).
T3 construct: Proteins enriched by c-ponatinib from U2OS cell lysate; endogenous in cells; host or cells: U2OS cell lysate
T3 sequence (O14980 whole entry): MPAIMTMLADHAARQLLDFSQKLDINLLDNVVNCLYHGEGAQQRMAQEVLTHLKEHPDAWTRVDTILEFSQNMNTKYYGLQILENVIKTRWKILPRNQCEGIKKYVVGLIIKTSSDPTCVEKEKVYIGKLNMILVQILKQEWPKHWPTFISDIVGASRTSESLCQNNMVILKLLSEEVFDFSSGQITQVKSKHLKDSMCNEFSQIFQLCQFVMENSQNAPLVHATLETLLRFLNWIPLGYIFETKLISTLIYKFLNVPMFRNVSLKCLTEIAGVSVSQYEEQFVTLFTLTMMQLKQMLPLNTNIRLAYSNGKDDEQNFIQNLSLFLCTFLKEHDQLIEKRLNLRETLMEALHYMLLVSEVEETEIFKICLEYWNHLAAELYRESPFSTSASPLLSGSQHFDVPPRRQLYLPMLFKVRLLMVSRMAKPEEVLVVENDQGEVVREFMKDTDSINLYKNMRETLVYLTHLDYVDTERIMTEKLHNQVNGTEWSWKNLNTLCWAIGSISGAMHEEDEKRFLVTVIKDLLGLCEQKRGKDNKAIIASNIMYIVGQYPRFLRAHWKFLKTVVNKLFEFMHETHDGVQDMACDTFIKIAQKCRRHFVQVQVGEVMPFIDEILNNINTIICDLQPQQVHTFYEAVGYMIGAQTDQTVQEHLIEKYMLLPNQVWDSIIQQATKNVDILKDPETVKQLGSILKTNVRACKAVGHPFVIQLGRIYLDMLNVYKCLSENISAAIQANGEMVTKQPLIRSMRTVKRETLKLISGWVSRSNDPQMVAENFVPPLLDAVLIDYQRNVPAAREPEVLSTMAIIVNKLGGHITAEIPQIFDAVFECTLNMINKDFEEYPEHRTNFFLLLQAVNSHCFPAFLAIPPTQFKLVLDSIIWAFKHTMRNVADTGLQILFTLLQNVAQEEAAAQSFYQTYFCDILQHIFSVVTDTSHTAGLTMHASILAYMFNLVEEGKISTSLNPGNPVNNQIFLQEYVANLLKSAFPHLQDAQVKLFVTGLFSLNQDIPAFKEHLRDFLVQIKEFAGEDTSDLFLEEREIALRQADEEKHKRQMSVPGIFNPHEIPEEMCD
Conditions: XPO1, Exportin-1. In a few lines:
as §1

Test [4] concerns the target T4, proteins of U2OS cell lysate (Homo sapiens, UniProt Q9Y5L0).
T4 construct: Proteins enriched by c-ponatinib from U2OS cell lysate; endogenous in cells; host or cells: U2OS cell lysate
Conditions: TNPO3, Transportin-3. A digest of the protocol: as §1

Test [5] deals with T5, proteins of U2OS cell lysate (Homo sapiens, UniProt P24534).
T5 construct: Proteins enriched by c-ponatinib from U2OS cell lysate; endogenous in cells; host or cells: U2OS cell lysate
T5 sequence (P24534 whole entry): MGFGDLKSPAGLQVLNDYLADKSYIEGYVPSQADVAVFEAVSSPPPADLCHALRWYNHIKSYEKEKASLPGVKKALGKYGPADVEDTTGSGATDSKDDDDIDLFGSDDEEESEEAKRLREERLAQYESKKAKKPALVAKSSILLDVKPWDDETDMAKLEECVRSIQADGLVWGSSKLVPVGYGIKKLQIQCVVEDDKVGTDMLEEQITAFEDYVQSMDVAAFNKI
The conditions noted are these: EEF1B2, Elongation factor 1-beta. A digest of the protocol: as §1

In test [6] the target is T6, proteins of U2OS cell lysate (Homo sapiens, UniProt Q14315).
T6 construct: Proteins enriched by c-ponatinib from U2OS cell lysate; endogenous in cells; host or cells: U2OS cell lysate
Conditions: FLNC, Filamin-C. In a few lines: as §1

Test [7] concerns the target T7, proteins of U2OS cell lysate (Homo sapiens, UniProt Q96RR4).
T7 construct: Proteins enriched by c-ponatinib from U2OS cell lysate; endogenous in cells; host or cells: U2OS cell lysate
Conditions: CAMKK2, Calcium/calmodulin-dependent protein kinase kinase 2. A digest of the protocol: as §1

Test [8] addresses T8, proteins of U2OS cell lysate (Homo sapiens, UniProt Q9UPT5).
T8 construct: Proteins enriched by c-ponatinib from U2OS cell lysate; endogenous in cells; host or cells: U2OS cell lysate
Conditions: EXOC7, Exocyst complex component 7. A digest of the protocol:
as §1

Test [9] addresses T9, proteins of U2OS cell lysate (Homo sapiens, UniProt P07437).
T9 construct: Proteins enriched by c-ponatinib from U2OS cell lysate; endogenous in cells; host or cells: U2OS cell lysate
Conditions: TUBB;TUBB2A, Tubulin beta chain. In a few lines:
as §1

For test [10], the target named is T10, proteins of U2OS cell lysate (Homo sapiens, UniProt Q14498).
T10 construct: Proteins enriched by c-ponatinib from U2OS cell lysate; endogenous in cells; host or cells: U2OS cell lysate
T10 sequence (Q14498 whole entry): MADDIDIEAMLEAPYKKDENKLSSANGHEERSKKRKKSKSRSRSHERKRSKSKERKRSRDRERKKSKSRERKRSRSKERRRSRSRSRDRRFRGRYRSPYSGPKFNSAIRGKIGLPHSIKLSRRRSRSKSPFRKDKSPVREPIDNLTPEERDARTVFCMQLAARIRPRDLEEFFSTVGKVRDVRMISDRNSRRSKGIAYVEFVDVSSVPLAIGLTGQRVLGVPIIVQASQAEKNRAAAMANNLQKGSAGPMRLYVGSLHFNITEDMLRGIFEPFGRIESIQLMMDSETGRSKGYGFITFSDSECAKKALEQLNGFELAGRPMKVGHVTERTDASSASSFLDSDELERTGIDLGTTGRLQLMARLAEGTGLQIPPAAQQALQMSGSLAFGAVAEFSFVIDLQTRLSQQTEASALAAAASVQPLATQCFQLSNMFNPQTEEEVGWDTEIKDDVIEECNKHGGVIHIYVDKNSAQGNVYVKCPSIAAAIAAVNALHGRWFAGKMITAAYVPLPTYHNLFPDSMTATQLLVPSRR
The conditions noted are these: RBM39, RNA-binding protein 39. A digest of the protocol: as §1

Test [11] has as its target T11, proteins of U2OS cell lysate (Homo sapiens, UniProt P05388).
T11 construct: Proteins enriched by c-ponatinib from U2OS cell lysate; endogenous in cells; host or cells: U2OS cell lysate
Conditions: RPLP0;RPLP0P6, 60S acidic ribosomal protein P0. In a few lines: as §1

The target of test [12] is T12, proteins of U2OS cell lysate (Homo sapiens, UniProt Q07065).
T12 construct: Proteins enriched by c-ponatinib from U2OS cell lysate; endogenous in cells; host or cells: U2OS cell lysate
T12 sequence (Q07065 whole entry): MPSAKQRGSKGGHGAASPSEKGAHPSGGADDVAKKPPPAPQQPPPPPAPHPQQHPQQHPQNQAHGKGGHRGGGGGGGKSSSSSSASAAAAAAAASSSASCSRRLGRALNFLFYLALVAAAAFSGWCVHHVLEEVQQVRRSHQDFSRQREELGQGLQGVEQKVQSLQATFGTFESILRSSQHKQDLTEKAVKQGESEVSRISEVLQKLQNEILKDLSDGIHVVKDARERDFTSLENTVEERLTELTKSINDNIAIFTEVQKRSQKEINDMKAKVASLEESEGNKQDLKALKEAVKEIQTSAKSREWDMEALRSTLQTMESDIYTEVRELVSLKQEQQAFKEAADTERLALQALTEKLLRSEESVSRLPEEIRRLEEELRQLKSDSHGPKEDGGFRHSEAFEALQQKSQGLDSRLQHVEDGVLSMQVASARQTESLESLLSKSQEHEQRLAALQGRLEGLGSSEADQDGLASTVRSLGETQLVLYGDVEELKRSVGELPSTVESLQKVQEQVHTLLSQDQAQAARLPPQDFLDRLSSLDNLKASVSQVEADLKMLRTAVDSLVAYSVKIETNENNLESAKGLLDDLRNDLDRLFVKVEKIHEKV
Conditions: CKAP4, Cytoskeleton-associated protein 4. A digest of the protocol: as §1

The target in test [13] is T13, proteins of U2OS cell lysate (Homo sapiens, UniProt P23246).
T13 construct: Proteins enriched by c-ponatinib from U2OS cell lysate; endogenous in cells; host or cells: U2OS cell lysate
The conditions noted are these: SFPQ, Splicing factor, proline- and glutamine-rich. In a few lines: as §1

Test [14] deals with T14, proteins of U2OS cell lysate (Homo sapiens, UniProt Q01082).
T14 construct: Proteins enriched by c-ponatinib from U2OS cell lysate; endogenous in cells; host or cells: U2OS cell lysate
Conditions: SPTBN1, Spectrin beta chain, non-erythrocytic 1. A digest of the protocol: as §1

Test [15] concerns the target T15, proteins of U2OS cell lysate (Homo sapiens, UniProt P46060).
T15 construct: Proteins enriched by c-ponatinib from U2OS cell lysate; endogenous in cells; host or cells: U2OS cell lysate
The conditions noted are these: RANGAP1, Ran GTPase-activating protein 1. A digest of the protocol: as §1

The target in test [16] is T16, proteins of U2OS cell lysate (Homo sapiens, UniProt Q9Y6G9).
T16 construct: Proteins enriched by c-ponatinib from U2OS cell lysate; endogenous in cells; host or cells: U2OS cell lysate
T16 sequence (Q9Y6G9 whole entry): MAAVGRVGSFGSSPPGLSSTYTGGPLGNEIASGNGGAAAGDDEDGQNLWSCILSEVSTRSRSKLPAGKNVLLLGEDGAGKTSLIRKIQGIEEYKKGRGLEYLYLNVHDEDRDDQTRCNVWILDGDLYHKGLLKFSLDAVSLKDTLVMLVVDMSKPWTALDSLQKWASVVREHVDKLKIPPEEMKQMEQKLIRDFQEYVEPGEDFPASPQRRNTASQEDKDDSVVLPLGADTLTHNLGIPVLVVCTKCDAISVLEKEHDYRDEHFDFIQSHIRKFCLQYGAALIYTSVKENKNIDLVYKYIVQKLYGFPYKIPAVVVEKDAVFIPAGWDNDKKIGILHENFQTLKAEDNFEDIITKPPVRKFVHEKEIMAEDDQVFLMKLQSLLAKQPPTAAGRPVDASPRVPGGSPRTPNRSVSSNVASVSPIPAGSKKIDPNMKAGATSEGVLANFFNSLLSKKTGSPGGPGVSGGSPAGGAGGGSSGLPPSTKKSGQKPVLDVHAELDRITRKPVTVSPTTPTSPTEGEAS
Conditions: DYNC1LI1, Cytoplasmic dynein 1 light intermediate chain 1. In a few lines:
as §1

Test [17] deals with T17, proteins of U2OS cell lysate (Homo sapiens, UniProt O00264).
T17 construct: Proteins enriched by c-ponatinib from U2OS cell lysate; endogenous in cells; host or cells: U2OS cell lysate
T17 sequence (O00264 whole entry): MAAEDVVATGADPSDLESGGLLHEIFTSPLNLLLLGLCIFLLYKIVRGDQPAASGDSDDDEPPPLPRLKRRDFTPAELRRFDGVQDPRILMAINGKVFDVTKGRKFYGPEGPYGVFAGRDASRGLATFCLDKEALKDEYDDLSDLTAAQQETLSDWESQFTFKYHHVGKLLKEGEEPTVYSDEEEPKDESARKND
The conditions noted are these: PGRMC1, Membrane-associated progesterone receptor component 1. A digest of the protocol:
as §1

In test [18] the target is T18, proteins of U2OS cell lysate (Homo sapiens, UniProt P26640).
T18 construct: Proteins enriched by c-ponatinib from U2OS cell lysate; endogenous in cells; host or cells: U2OS cell lysate
T18 sequence (P26640 whole entry): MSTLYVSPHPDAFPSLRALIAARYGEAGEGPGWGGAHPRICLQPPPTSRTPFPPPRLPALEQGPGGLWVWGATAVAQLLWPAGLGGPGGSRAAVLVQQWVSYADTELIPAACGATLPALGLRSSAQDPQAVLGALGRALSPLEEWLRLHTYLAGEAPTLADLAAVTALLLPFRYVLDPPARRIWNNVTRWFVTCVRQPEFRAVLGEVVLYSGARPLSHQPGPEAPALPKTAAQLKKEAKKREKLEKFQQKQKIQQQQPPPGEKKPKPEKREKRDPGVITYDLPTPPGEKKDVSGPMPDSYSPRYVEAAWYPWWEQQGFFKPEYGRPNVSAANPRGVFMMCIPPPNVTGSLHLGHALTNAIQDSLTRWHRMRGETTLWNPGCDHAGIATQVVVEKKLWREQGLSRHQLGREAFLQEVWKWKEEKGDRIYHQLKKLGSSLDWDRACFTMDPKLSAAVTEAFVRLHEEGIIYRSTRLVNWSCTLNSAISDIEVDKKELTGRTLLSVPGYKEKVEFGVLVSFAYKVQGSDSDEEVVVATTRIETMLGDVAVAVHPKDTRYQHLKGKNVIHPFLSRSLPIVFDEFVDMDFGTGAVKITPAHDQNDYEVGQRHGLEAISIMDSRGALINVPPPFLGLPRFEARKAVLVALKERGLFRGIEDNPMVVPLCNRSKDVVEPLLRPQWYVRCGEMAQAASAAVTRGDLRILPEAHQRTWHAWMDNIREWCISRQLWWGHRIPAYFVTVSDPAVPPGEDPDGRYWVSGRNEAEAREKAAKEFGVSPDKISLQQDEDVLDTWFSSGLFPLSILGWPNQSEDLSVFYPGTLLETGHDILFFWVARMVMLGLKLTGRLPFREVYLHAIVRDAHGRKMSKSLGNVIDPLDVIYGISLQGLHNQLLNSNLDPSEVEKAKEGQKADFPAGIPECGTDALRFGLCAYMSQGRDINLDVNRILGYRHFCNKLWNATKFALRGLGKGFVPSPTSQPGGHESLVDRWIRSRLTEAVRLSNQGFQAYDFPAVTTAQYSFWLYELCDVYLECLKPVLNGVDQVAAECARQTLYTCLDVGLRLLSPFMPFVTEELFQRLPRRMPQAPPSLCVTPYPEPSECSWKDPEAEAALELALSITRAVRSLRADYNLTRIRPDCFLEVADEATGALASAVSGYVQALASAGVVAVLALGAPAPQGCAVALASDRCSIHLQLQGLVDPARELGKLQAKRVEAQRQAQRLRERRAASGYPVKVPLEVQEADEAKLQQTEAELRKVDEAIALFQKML
Conditions: VARS, Valine--tRNA ligase. In a few lines: as §1

Test [19] deals with T19, proteins of U2OS cell lysate (Homo sapiens, UniProt P21796).
T19 construct: Proteins enriched by c-ponatinib from U2OS cell lysate; endogenous in cells; host or cells: U2OS cell lysate
The conditions noted are these: captured protein VDAC1, Rank 118. A digest of the protocol:
as §1

T7 sequence (Q96RR4 whole entry): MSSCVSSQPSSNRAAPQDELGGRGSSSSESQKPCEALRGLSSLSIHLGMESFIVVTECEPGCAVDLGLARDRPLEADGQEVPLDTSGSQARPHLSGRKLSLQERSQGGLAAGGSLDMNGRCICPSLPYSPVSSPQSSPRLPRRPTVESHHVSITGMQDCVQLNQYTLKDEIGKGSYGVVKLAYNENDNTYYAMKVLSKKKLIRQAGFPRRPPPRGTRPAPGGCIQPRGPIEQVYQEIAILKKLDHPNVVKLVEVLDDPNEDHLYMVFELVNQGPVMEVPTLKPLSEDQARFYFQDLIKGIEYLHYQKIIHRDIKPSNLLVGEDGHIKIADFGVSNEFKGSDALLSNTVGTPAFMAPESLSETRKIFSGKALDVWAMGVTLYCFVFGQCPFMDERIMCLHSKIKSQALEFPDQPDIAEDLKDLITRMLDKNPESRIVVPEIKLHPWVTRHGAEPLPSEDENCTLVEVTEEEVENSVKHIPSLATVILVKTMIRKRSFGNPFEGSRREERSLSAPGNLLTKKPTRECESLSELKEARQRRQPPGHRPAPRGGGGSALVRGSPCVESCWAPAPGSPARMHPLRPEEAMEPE

On to `Cc1ccc(C(=O)Nc2ccc(CN3CCN(C)CC3)c(C(F)(F)F)c2)cc1C#Cc1cnc2cccnn12` [PON], for which the “Average LFQ PON_WT” value in [1] is reported as 21.3958; in test [2], 25.5794; in [3] it was 23.5357; in [4], 20.3086; in test [5] it was 23.7043; in [6], 26.6007. Besides, the “Average LFQ PON_WT” value in [7] is listed as 20.0519; in [8], 19.8682; in test [9], 24.4278; in test [10], 20.4989; in test [11], 20.5709; in test [12], 21.3006. The “Average LFQ PON_WT” value in [13] was found to be 20.8702; in [14] it was 25.171; in [15] it was 21.315; in test [16], 23.2986; in test [17], 23.2724; in test [18], 20.4235.
Regarding `Cc1ccc(C(=O)Nc2ccc(CN3CCN(CCCN)CC3)c(C(F)(F)F)c2)cc1C#Cc1cnc2cccnn12` [c-ponatinib, reference compound], the “Average LFQ intensity” value in [19] is reported as 23.117.
